According to patent US12274732B2, “Anti-pathogen composition and methods of use thereof” (Tenfold Technologies, LLC, priority 2017, dated 2025):
≈ marks a conversion by molar mass, not a printed value. Positions of bridges follow the written chain, without caps; N, C: chain ends. Non-standard residues stand in square brackets, D forms with d. Residues, ends and D or L forms follow the SMILES beside them. ξ: configuration not given here. *: point of attachment. Pentadecanoyl(3ξ-OH,15-Gua) = N=C(N)NCCCCCCCCCCCCC(O)CC(=O)*; d(aThr) = C[C@@H](O)[C@@H](N)C(=O)O; Thr(3ξ) = CC(O)[C@H](N)C(=O)O

Experiments:
Type in all cases: cell-based
Pseudomonas aeruginosa = experiment: In vitro antimicrobial activity against Pseudomonas aeruginosa; details: Table 13; Pseudomonas aeruginosa ATCC 2108
Protocol: (§1) Fifty organic extracts were prepared from 25 whole broth of four microbial strains (MS1479, MS2379, MS2820, and MS2414), which were fermented in different media for the antimicrobial testing. Note each whole broth culture generated one n-butanol extract from cultural supernatant and one methanol extract from cell pellets.
(§2) The antimicrobial activities of the 50 organic extracts were studied against three fungal pathogens—Candida albicans, Aspergillus fumigatus, and Cryptococcus neoformans—and five bacterial strains-Methicillin-resistant Staphylococcus aureus (MIRSA), Escherichia coli, Pseudomonas aeruginosa, Klebsiella pneumoniae, and Vancomycin-resistant Enterococcus faecium (VRE) (FIG. 2). The test concentrations for all extracts were in the range of 8-200 μg/mL (Table 3).
(§3) The antimicrobial activities of identified fusaricidins were in an in vitro study against several clinically relevant microbes. […] For the in-vitro assays against bacteria, fusaricidins were tested against methicillin-resistant Staphylococcus aureus, vancomycin-resistant Enterococcus faecium, Escherichia coli, and Pseudomonas aeruginosa using four antibacterial drugs methicillin, vancomycin, cefotaxime, and meropenem as controls. […] Fusaricidins were also tested against fungal pathogens Cryptococcus neoformans, Candida albicans, and Aspergillus fumigatus and compared with two antifungal drugs, fluconazole and amphotericin B (Table 13). Moreover, the anti-parasitic activity was also tested against L. donovani and T. brucei (Table 14).

[1] = test system: Vancomycin-resistant Enterococcus faecium (VRE); experiment: In vitro antimicrobial activity against VRE; details: for VRE IC50 (50% growth inhibitory concentration) / VRE MIC (minimum inhibitory concentration): Table 13, Vancomycin-resistant Enterococcus faecium ATCC 700221
Protocol: as §1, §2, §3

Aspergillus fumigatus = experiment: In vitro antimicrobial activity against Aspergillus fumigatus; details: Table 12
Protocol: as §1, §2, §3

Escherichia coli = experiment: In vitro antimicrobial activity against Escherichia coli; details: Table 13; Escherichia coli ATCC 2452
Protocol: as §1, §2, §3

Cryptococcus neoformans = experiment: In vitro antimicrobial activity against Cryptococcus neoformans; details: Table 12
Protocol: as §1, §2
The potent activities against the fungal pathogen C. neoformans and the gram-positive bacteria S. aureus, MRSA, and M. intracellulare were also shown in the crude extracts (FIG. 7).
as §3

[2] = test system: Methicillin-resistant Staphylococcus aureus (MRSA); experiment: In vitro antimicrobial activity against MRSA; details: for MRSA IC50 (50% growth inhibitory concentration) / MRSA MIC (minimum inhibitory concentration): Table 13, Methicillin-resistant Staphylococcus aureus ATCC 1708
Protocol: as §1, §2, §3

Candida albicans = experiment: In vitro antimicrobial activity against Candida albicans; details: Table 12; for C. albicans MIC (minimum inhibitory concentration): lowest concentration that allows no detectable growth
Protocol: as §1, §2, §3

[3] = highest test conc. fusaricidins 20, controls 100 μg/mL
[4] = lowest concentration that allows no detectable growth

Compound	P. aeruginosa IC50 (50% growth inhibitory concentration) (Pseudomonas aeruginosa)	P. aeruginosa MIC (minimum inhibitory concentration) (Pseudomonas aeruginosa)	VRE IC50 (50% growth inhibitory concentration) [1] [µg/mL]	VRE MIC (minimum inhibitory concentration) [1] [µg/mL]	A. fumigatus IC50 (50% growth inhibitory concentration) (Aspergillus fumigatus; [3])	A. fumigatus MIC (minimum inhibitory concentration) (Aspergillus fumigatus; [4])	E. coli IC50 (50% growth inhibitory concentration) (Escherichia coli)	E. coli MIC (minimum inhibitory concentration) (Escherichia coli)	C. neoformans IC50 (50% growth inhibitory concentration) (Cryptococcus neoformans; [3]) [µg/mL]	C. neoformans MIC (minimum inhibitory concentration) (Cryptococcus neoformans; [4]) [µg/mL]	MRSA IC50 (50% growth inhibitory concentration) [2] [µg/mL]	MRSA MIC (minimum inhibitory concentration) [2] [µg/mL]	C. albicans IC50 (50% growth inhibitory concentration) (Candida albicans; [3]) [µg/mL]	C. albicans MIC (minimum inhibitory concentration) (Candida albicans) [µg/mL]	other results
CC(C)[C@@H]1NC(=O)[C@@H](C(C)C)NC(=O)[C@@H](NC(=O)CC(O)CCCCCCCCCCCCN=C(N)N)[C@@H](C)OC(=O)[C@@H](C)NC(=O)[C@@H](CC(N)=O)NC(=O)[C@@H]([C@@H](C)O)NC1=O (stereo partly shown) [Fusaricidin A (SQ-1-43 A)] ({Pentadecanoyl(3ξ-OH,15-Gua)}-T[dV]V[d(aThr)][dN][dA]; ester 1-C)	>20/>20 μg/mL	>20/>20 μg/mL	3.6	5.0	>20/>20 μg/mL	>20/>20 μg/mL	>20/>20 μg/mL	>20/>20 μg/mL	0.5	1.3	2.3	2.5	5.1	10.0	
CC(C)[C@@H]1NC(=O)[C@@H](C(C)C)NC(=O)[C@@H](NC(=O)CC(O)CCCCCCCCCCCCN=C(N)N)[C@@H](C)OC(=O)[C@@H](C)NC(=O)[C@@H](CC(N)=O)NC(=O)[C@@H]([C@@H](C)O)NC1=O (stereo partly shown) [Fusaricidin A (RRR-8-32Q)] ({Pentadecanoyl(3ξ-OH,15-Gua)}-T[dV]V[d(aThr)][dN][dA]; ester 1-C)	>20/>20 μg/mL	>20/>20 μg/mL	3.7	5.0	18.5 µg/mL	> 20 µg/mL	>20/>20 μg/mL	>20/>20 μg/mL	1.2	2.5	2.1	2.5	3.5	5.0	
Fusaricidin B															activity against VRE (in words) [1]: strong activity; activity against MRSA (in words) [2]: strong activity
CC(C)[C@@H]1NC(=O)[C@@H](C(C)C)NC(=O)[C@@H](NC(=O)CC(O)CCCCCCCCCCCCN=C(N)N)C(C)OC(=O)[C@@H](C)NC(=O)[C@@H](CCC(N)=O)NC(=O)[C@@H]([C@H](C)O)NC1=O (stereo partly shown) [Fusaricidin B (SQ-1-43B)] ({Pentadecanoyl(3ξ-OH,15-Gua)}-[Thr(3ξ)][dV]V[dT][dQ][dA]; ester 1-C)	>20/>20 μg/mL	>20/>20 μg/mL	8.7	20.0	>20/>20 μg/mL	>20/>20 μg/mL	>20/>20 μg/mL	>20/>20 μg/mL	1.1	2.5	4.2	5.0	9.1	10.0	
OC(Cn1cncn1)(Cn1cncn1)c1ccc(F)cc1F [Fluconazol]															IC50 (Aspergillus fumigatus; Aspergillus fumigatus, highest test conc. fusaricidins 20, controls 100 μg/mL, read-out: A. fumigatus IC50 (50% growth inhibitory concentration)): > 100 µg/mL; MIC (Aspergillus fumigatus; Aspergillus fumigatus, lowest concentration that allows no detectable growth, read-out: A. fumigatus MIC (minimum inhibitory concentration)): > 100 µg/mL; IC50 (Cryptococcus neoformans; Cryptococcus neoformans, highest test conc. fusaricidins 20, controls 100 μg/mL, read-out: C. neoformans IC50 (50% growth inhibitory concentration)): 2.5 µg/mL (≈ 8.16 µM); MIC (Cryptococcus neoformans; Cryptococcus neoformans, lowest concentration that allows no detectable growth, read-out: C. neoformans MIC (minimum inhibitory concentration)): 6.3 µg/mL (≈ 20.6 µM); IC50 (Candida albicans; Candida albicans, highest test conc. fusaricidins 20, controls 100 μg/mL, read-out: C. albicans IC50 (50% growth inhibitory concentration)): 1 µg/mL (≈ 3.27 µM)
